For 21 compounds, TGI results are on record in PubChem BioAssay (NCI).

Among the test systems are ACHN renal; CCRF-CEM leukemia; CAKI-1 renal; SW-620 colon; SF-539 CNS; RPMI-8226 leukemia; HS 578T breast; UACC-257 melanoma; HOP-62 NSCLC; UO-31 renal.
Assay in all cases: NCI-60 cell line screen, 48 h

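96-well plates; 48 h exposure; 5 concentrations. Endpoints by linear interpolation between flanking doses. Not reached: highest tested concentration assigned. Definition used: TGI = concentration required for complete inhibition of growth.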

For `COC1=CC(=O)CC(C)C12Oc1c(Cl)c(OC)cc(OC)c1C2=O` (stereo not given), the TGI in the assay on ACHN renal is greater than 100 µM; in the assay with CCRF-CEM leukemia, 98.3 µM; in the assay with CAKI-1 renal, 84.9 µM; in the assay on SW-620 colon, greater than 100 µM; with SF-539 CNS, 42.1 µM; with RPMI-8226 leukemia it was greater than 100 µM. Also, the TGI with HS 578T breast was greater than 80 µM; in the assay on UACC-257 melanoma it was greater than 100 µM; in the assay with HOP-62 NSCLC, greater than 100 µM; in the assay with UO-31 renal, greater than 88.1 µM.

Consider `O=C1C(Cl)=C(N(C(=O)c2ccccc2)C(=O)c2ccccc2)C(=O)c2ccccc21`, for which the TGI in the assay with ACHN renal was 13.9 µM; with CCRF-CEM leukemia, 18.6 µM; in the assay with CAKI-1 renal, 23.3 µM; in the assay with SW-620 colon, 24.3 µM; in the assay on SF-539 CNS, 19.6 µM; with RPMI-8226 leukemia it was 8.87 µM. Moreover, the TGI with HS 578T breast was 98 µM; in the assay on UACC-257 melanoma it was 28.7 µM; in the assay with HOP-62 NSCLC it was greater than 100 µM; in the assay with UO-31 renal, 15.7 µM.

Regarding `O=C(Nc1cccc([N+](=O)[O-])c1)c1n[nH]n(-c2cccc([N+](=O)[O-])c2)c1=O`, the TGI in the assay on ACHN renal, in the assay with CCRF-CEM leukemia, in the assay with CAKI-1 renal, in the assay with SW-620 colon, in the assay on SF-539 CNS and in the assay on RPMI-8226 leukemia was greater than 100 µM throughout. Also, the TGI in the assay with HS 578T breast, in the assay on UACC-257 melanoma, in the assay on HOP-62 NSCLC and in the assay on UO-31 renal was greater than 100 µM each time.

Turning to `CCCCCCCCCCCCCCCCOP(=O)(O)OCC(N)C(=O)O` (stereo not given), the TGI with ACHN renal stood at 32.7 µM; in the assay on CCRF-CEM leukemia, 65 µM; in the assay with CAKI-1 renal, 28 µM; with SW-620 colon, 38.6 µM; with SF-539 CNS it was 39.8 µM; with RPMI-8226 leukemia it was 47.9 µM. Also, the TGI with HS 578T breast is 40.8 µM; in the assay on UACC-257 melanoma, greater than 100 µM; in the assay on HOP-62 NSCLC, 45.9 µM; in the assay on UO-31 renal it was 30.8 µM.

For the compound `Nc1[nH]nc2nc3ccccc3nc12`, the TGI in the assay on ACHN renal, in the assay with CCRF-CEM leukemia, with CAKI-1 renal, in the assay with SW-620 colon, in the assay on SF-539 CNS and in the assay on RPMI-8226 leukemia was greater than 100 µM each time. Moreover, the TGI with HS 578T breast, with UACC-257 melanoma, with HOP-62 NSCLC and in the assay on UO-31 renal was greater than 100 µM in each case.

As for `COC1=CC2(CC(OC)=C1OC)OC21COc2ccccc2C1=O` (stereo not given), the TGI with ACHN renal, in the assay on CCRF-CEM leukemia, with CAKI-1 renal, with SW-620 colon, with SF-539 CNS and in the assay with RPMI-8226 leukemia was greater than 100 µM each time. Further, the TGI with HS 578T breast, in the assay with UACC-257 melanoma, in the assay with HOP-62 NSCLC and with UO-31 renal was greater than 100 µM throughout.

`Clc1cccc(NN=Nc2ccc(-c3nc4ccccc4s3)cc2)c1`: the TGI in the assay with ACHN renal was greater than 100 µM; in the assay with CCRF-CEM leukemia, 37.7 µM; in the assay on CAKI-1 renal, greater than 100 µM; with SW-620 colon it was greater than 100 µM; with SF-539 CNS, greater than 100 µM; in the assay with RPMI-8226 leukemia it was greater than 100 µM. The TGI in the assay with HS 578T breast, in the assay with UACC-257 melanoma, in the assay on HOP-62 NSCLC and with UO-31 renal was greater than 100 µM in each case.

On to `O=c1oc2ccccc2cc1-c1cn2c(n1)sc1ccccc12`, for which the TGI with ACHN renal, in the assay on CCRF-CEM leukemia, with CAKI-1 renal, in the assay on SW-620 colon, in the assay on SF-539 CNS and with RPMI-8226 leukemia was greater than 100 µM in each case. Moreover, the TGI in the assay with HS 578T breast, with UACC-257 melanoma, in the assay on HOP-62 NSCLC and in the assay with UO-31 renal was greater than 100 µM throughout.

As for `Cn1c(CO)ccc1-c1ccc(-c2ccc[se]2)[se]1`, the TGI in the assay with ACHN renal is greater than 100 µM; in the assay with CCRF-CEM leukemia, greater than 60.6 µM; with SW-620 colon it was 77.8 µM; with SF-539 CNS, 31.7 µM; in the assay with RPMI-8226 leukemia, greater than 71.6 µM; in the assay with HS 578T breast it was greater than 100 µM. The results for the TGI with HOP-62 NSCLC and in the assay on UO-31 renal were 55.1 µM and greater than 100 µM, respectively.

For `COc1ccc(C2C(C#N)=C(S)N(C3OC(COC(C)=O)C(OC(C)=O)C(OC(C)=O)C3OC(C)=O)C(c3ccccc3)=C2C(C)=O)cc1` (stereo not given), the TGI in the assay with ACHN renal, in the assay on CCRF-CEM leukemia, with CAKI-1 renal, with SF-539 CNS, in the assay with RPMI-8226 leukemia and in the assay on HS 578T breast was greater than 100 µM in each case. Moreover, the TGI in the assay with UACC-257 melanoma was greater than 100 µM; in the assay on HOP-62 NSCLC it was greater than 100 µM; in the assay on UO-31 renal, 99.5 µM.

As for `O=C(O)c1cnc(-n2[nH]c3c(c2=O)CCCC3)[nH]c1=O`, the TGI in the assay with ACHN renal, in the assay on CCRF-CEM leukemia, in the assay with CAKI-1 renal, with SW-620 colon, with SF-539 CNS and in the assay on RPMI-8226 leukemia was greater than 100 µM each time. Further, the TGI with HS 578T breast, in the assay with UACC-257 melanoma and in the assay on UO-31 renal was greater than 100 µM in each case.

`COC(=O)c1c(C#N)c(N)nc2c1CCC2`: the TGI in the assay on ACHN renal, with CCRF-CEM leukemia, in the assay on CAKI-1 renal, in the assay on SW-620 colon, in the assay on RPMI-8226 leukemia and in the assay with HS 578T breast was greater than 100 µM in each case. For the same compound, the TGI in the assay with UACC-257 melanoma, with HOP-62 NSCLC and in the assay on UO-31 renal was greater than 100 µM each time.

On to `Cc1cc(S(=O)(=O)Nc2nc3ccccc3nc2-c2ccc(Cl)cc2)c(S)cc1Cl`, for which the TGI with ACHN renal amounted to 34.9 µM; in the assay with CCRF-CEM leukemia, 58.1 µM; with CAKI-1 renal, 36.8 µM; in the assay on SF-539 CNS, 34 µM; in the assay with RPMI-8226 leukemia, 68.5 µM; in the assay with HS 578T breast it was 73 µM. Besides, the TGI in the assay on UACC-257 melanoma was 44.2 µM; in the assay on HOP-62 NSCLC it was 46.7 µM; in the assay on UO-31 renal it was 30.1 µM.

Consider `CC1(C)CCC(C)(C)C1C(=O)NC(O)C(=O)O` (stereo not given), for which the TGI in the assay on ACHN renal, with CCRF-CEM leukemia, with SW-620 colon, in the assay with SF-539 CNS, in the assay with RPMI-8226 leukemia and in the assay with HS 578T breast was greater than 100 µM in each case. The TGI with HOP-62 NSCLC and with UO-31 renal was greater than 100 µM throughout.

For `CC1CC/C(=C\c2ccc(F)cc2)C(=O)/C1=C/c1ccc(F)cc1` (stereo not given), the TGI was 13.6 µM in the assay on ACHN renal; 14.5 µM in the assay with CCRF-CEM leukemia; 12.1 µM in the assay on CAKI-1 renal; 87.6 µM in the assay with SW-620 colon; 9.15 µM in the assay on SF-539 CNS; 5.52 µM in the assay with RPMI-8226 leukemia. Moreover, the TGI with HS 578T breast came out at 31.4 µM; with UACC-257 melanoma it was 29.9 µM; in the assay with UO-31 renal it was 23.6 µM.

Regarding `COC(=O)c1c(O)ccc2[nH]c3c(O)c4ccccc4cc3c12`, the TGI was 96.3 µM in the assay on ACHN renal; 63.1 µM in the assay with CCRF-CEM leukemia; 45.9 µM in the assay on CAKI-1 renal; 60.3 µM with SF-539 CNS; 44.7 µM in the assay with RPMI-8226 leukemia; 72.8 µM in the assay on HS 578T breast. Also, the values for the TGI in the assay with UACC-257 melanoma, in the assay on HOP-62 NSCLC and with UO-31 renal were 94.5 µM, 46.7 µM and 84.9 µM, respectively.

`CCCCCCCCCCCC[C@@H](O)[C@H]1CCC([C@H](O)CCCCC(=O)CCCCCCCC2=C[C@H](C)OC2=O)O1` (stereo not given in full): the TGI in the assay on ACHN renal, in the assay on CCRF-CEM leukemia, with CAKI-1 renal, with SW-620 colon, in the assay on SF-539 CNS and in the assay on RPMI-8226 leukemia was greater than 50 µM in each case. Moreover, the figures for the TGI in the assay on HS 578T breast, in the assay on UACC-257 melanoma and in the assay on UO-31 renal were greater than 32.8 µM, greater than 50 µM and greater than 50 µM, respectively.

With `C=C1C(O)C[C@H](OC(C)=O)[C@]2(C)C1C(OC(C)=O)[C@]1(C(C)(C)O)CC(O)C(C)=C1[C@@H](OC(=O)c1ccccc1)C2OC(C)=O` (stereo not given in full), the TGI with ACHN renal, with CCRF-CEM leukemia, in the assay with CAKI-1 renal, with SW-620 colon, with SF-539 CNS and with RPMI-8226 leukemia was greater than 10 µM each time. The TGI in the assay with HS 578T breast, in the assay on UACC-257 melanoma and with UO-31 renal was greater than 10 µM throughout.

As to `O=c1[nH]cc(Cl)c(=O)[nH]1`, the TGI with ACHN renal, in the assay on CCRF-CEM leukemia, with CAKI-1 renal, with SW-620 colon, with SF-539 CNS and in the assay with RPMI-8226 leukemia was greater than 100 µM in each case. The TGI with HS 578T breast, in the assay on UACC-257 melanoma and with UO-31 renal was greater than 100 µM in each case.

Consider `Cc1sc2c(c1C)/C(=N\O)c1cccn1-2`, for which the TGI in the assay on ACHN renal is greater than 100 µM; in the assay with CCRF-CEM leukemia, greater than 100 µM; in the assay on CAKI-1 renal, greater than 100 µM; in the assay on SW-620 colon, greater than 100 µM; in the assay with RPMI-8226 leukemia it was greater than 100 µM; in the assay with HS 578T breast, 46 µM. Besides, the results for the TGI in the assay on UACC-257 melanoma, with HOP-62 NSCLC and in the assay with UO-31 renal were greater than 100 µM, 63.3 µM and greater than 100 µM, respectively.

Regarding `Nc1ncn2c(n1)nc1ccccc12`, the TGI in the assay with ACHN renal, in the assay with CCRF-CEM leukemia, with CAKI-1 renal, in the assay with SW-620 colon, in the assay on SF-539 CNS and in the assay on RPMI-8226 leukemia was greater than 100 µM throughout. For the same compound, the TGI in the assay on HS 578T breast, in the assay with UACC-257 melanoma and in the assay with UO-31 renal was greater than 100 µM in each case.
